{"source": "paper PMC2063630", "about": "(The Journal of Cell Biology, 2007)", "key": {"[1]": {"test_system": "p38 and JNK isoforms", "details": "high concentrations; ref Kuma et al., 2005; cited from earlier work"}, "[2]": {"test_system": "endogenous WNK1 in 293 cells", "assay_type": "cell-based", "details": "for activation of WNK1 by other stimuli, in words: serum-deprived 16 h, stimulus 30 min"}, "[3]": {"test_system": "WNK1 localization in 293 cells", "assay": "WNK1 localization in 293 cells by confocal and live-cell imaging, FRAP", "assay_type": "cell-based", "details": "for time to redistribution of GFP-WNK1 to intracellular vesicles / time to reversal after removal (WNK1 diffuse in cytosol): live 293 cells; for time to redistribution of GFP-WNK1 to intracellular vesicles: 0.2 M sorbitol or 0.2 M NaCl; for time to reversal after removal (WNK1 diffuse in cytosol): removal of sorbitol or NaCl; for FRAP: time to redistribution to photobleached area: sorbitol- or NaCl-treated 293 cells"}, "[4]": {"test_system": "ERK1/2", "assay": "ERK activation in 293 cells", "assay_type": "cell-based"}, "[5]": {"test_system": "p38 and JNK", "assay": "p38 / JNK activation in 293 cells", "assay_type": "cell-based", "details": "30 min"}, "[6]": {"test_system": "endogenous WNK1 in 293 cells", "assay_type": "cell-based, human", "details": "0.5 M sorbitol"}, "[7]": {"test_system": "endogenous SPAK and OSR1 in HeLa cells", "assay": "SPAK/OSR1 activity in HeLa cells", "assay_type": "cell-based", "details": "0.5 M sorbitol, 30 min, CATCHtide"}, "[8]": {"test_system": "endogenous SPAK and OSR1 in 293 cells", "assay": "SPAK/OSR1 activity in 293 cells", "assay_type": "cell-based", "details": "sorbitol, CATCHtide (Fig. S1)"}, "[9]": {"test_system": "SPAK and OSR1 T-loop and S-motif", "assay": "SPAK/OSR1 T-loop and S-motif phosphorylation", "assay_type": "cell-based", "details": "sorbitol, HeLa and 293 cells"}, "[10]": {"target": "OSR1 CCT domain (residues 429–527) (Homo sapiens, UniProt O95747)", "sequence (O95747 429-527)": "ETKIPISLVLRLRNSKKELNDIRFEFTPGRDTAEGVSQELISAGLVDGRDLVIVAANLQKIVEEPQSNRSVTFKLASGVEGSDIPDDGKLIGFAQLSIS", "assay": "Surface plasmon resonance", "assay_type": "binding", "details": "BiaCore, OSR1 CCT domain 6.8–340 nM; vs nonphosphorylated peptide"}, "[11]": {"test_system": "OSR1[D164A] phosphorylation by WNK1[1–661]", "assay": "Activity of WNK1[1–661] forms expressed in E. coli", "assay_type": "biochemical", "details": "mean of duplicate samples"}, "[12]": {"test_system": "WNK1 Ser382", "assay": "WNK1 Ser382 phosphorylation, forms expressed in E. coli", "assay_type": "biochemical"}, "[13]": {"test_system": "WNK1 Ser382", "assay": "WNK1 Ser382 phosphorylation, forms expressed in 293 cells", "assay_type": "cell-based", "details": "0.5 M sorbitol, 30 min, phospho-Ser382 antibody"}, "[14]": {"test_system": "OSR1[D164A] phosphorylation by WNK1[1–667]", "assay": "Activity of GST-WNK1[1–667] forms expressed in 293 cells", "assay_type": "cell-based"}, "[15]": {"target": "OSR1 CCT domain (residues 429-527) (human, UniProt O95747 429-527)", "sequence (O95747 429-527)": "as above", "assay": "SPR"}, "[16]": {"details": "PD184352 2 μM 30 min preincubation, 0.5 M sorbitol 30 min"}, "[17]": {"details": "U0126, 0.5 M sorbitol, not depicted"}}, "note": "Where two headings read alike, the source gives them in different places. Square brackets hold non-standard residues; d marks the D form. Ends that are not written are not given here. * marks the point of attachment. Biotin = O=C1N[C@H]2[C@H](CS[C@H]2CCCCC(=O)*)N1; pS = N[C@@H](COP(=O)(O)O)C(=O)O"}
{"molecule": "Cc1ccc(-n2nc(C(C)(C)C)cc2NC(=O)Nc2ccc(OCCN3CCOCC3)c3ccccc23)cc1", "note": "[BIRB0796]", "values": [{"measurement": "inhibition of p38 and JNK isoforms, in words", "setting": "[1]", "value": "inhibit all p38 and JNK isoforms"}]}
{"molecule": "OO", "note": "[H2O2]", "values": [{"measurement": "activation of WNK1 by other stimuli, in words", "setting": "[2]", "value": "failed to induce activation of WNK1"}]}
{"molecule": "[Cl-].[K+]", "note": "[KCl]", "values": [{"measurement": "fold increase of WNK1 activity", "setting": "[2]; 0.5 M KCl, 30 min", "value": "threefold"}]}
{"molecule": "[Cl-].[Na+]", "note": "[NaCl]", "values": [{"measurement": "concentration at which WNK1 activation was detectable", "setting": "[2]; NaCl, 30 min", "value": 50, "unit": "mM"}, {"measurement": "concentration for maximal WNK1 activation", "setting": "[2]; NaCl, 30 min", "value": 0.15, "unit": "M"}, {"measurement": "time to redistribution of GFP-WNK1 to intracellular vesicles", "setting": "[3]", "value": "≤ 0.5", "unit": "min"}, {"measurement": "time to reversal after removal (WNK1 diffuse in cytosol)", "setting": "[3]", "value": "≤ 2", "unit": "min"}, {"measurement": "FRAP: time to redistribution to photobleached area", "setting": "[3]", "value": "≤ 2", "unit": "min"}]}
{"molecule": "O=C(NOCC1CC1)c1ccc(F)c(F)c1Nc1ccc(I)cc1Cl", "note": "[PD184352]", "values": [{"measurement": "effect on WNK1 activation by sorbitol", "setting": "[2]; [16]", "value": "without affecting WNK1 activation"}, {"measurement": "effect on ERK activation by sorbitol", "setting": "[4]; [16]", "value": "abolished ERK activation by sorbitol"}]}
{"molecule": "C[S+]([O-])c1ccc(-c2nc(-c3ccncc3)c(-c3ccc(F)cc3)[nH]2)cc1", "note": "(centres unmarked) [SB203580]", "values": [{"measurement": "effect on WNK1 activation by sorbitol", "setting": "[2]", "value": "failed to prevent activation of WNK1 by sorbitol"}]}
{"molecule": "CCCCCCCCCCCCCC(=O)O[C@@H]1[C@@H](C)[C@@]2(O)[C@@H](C=C(CO)C[C@]3(O)C(=O)C(C)=C[C@@H]23)[C@@H]2C(C)(C)[C@]12OC(C)=O", "note": "[TPA]", "values": [{"measurement": "activation of WNK1 by other stimuli, in words", "setting": "[2]", "value": "failed to induce activation of WNK1"}]}
{"molecule": "N#CC(=C(/N)Sc1ccccc1N)/C(C#N)=C(/N)Sc1ccccc1N", "note": "[U0126]", "values": [{"measurement": "effect on WNK1 activation by sorbitol", "setting": "[2]; [17]", "value": "without affecting WNK1 activation"}, {"measurement": "effect on ERK activation by sorbitol", "setting": "[4]; [17]", "value": "abolished ERK activation by sorbitol"}]}
{"molecule": "COc1ccc(C[C@H]2NC[C@H](O)[C@H]2OC(C)=O)cc1", "note": "[anisomycin]", "values": [{"measurement": "activation of WNK1 by anisomycin, in words", "setting": "[2]; anisomycin 10 μg/ml, 30 min", "value": "failed to activate WNK1"}, {"measurement": "p38 and JNK stimulation, in words", "setting": "[5]; anisomycin 10 μg/ml", "value": "potently stimulates p38 and JNK"}]}
{"molecule": "CCCCNc1cc(C(=O)O)cc(S(N)(=O)=O)c1Oc1ccccc1", "note": "[bumetanide]", "values": [{"measurement": "activation of WNK1 by other stimuli, in words", "setting": "[2]", "value": "failed to induce activation of WNK1"}]}
{"molecule": "COC[C@@H]([C@H](O)[C@H](O)C(=O)NCC[C@H](C)c1nc(/C=C/C[C@@H]2O[C@]3(C[C@@H](O)[C@@H]2C)O[C@H]([C@H](C[C@H](O)[C@H](C)[C@H](O)[C@H](C)/C=C(C)/C(C)=C/C=C/C(C)=C\\C#N)OC)[C@H](OP(=O)(O)O)C3(C)C)co1)N(C)C", "note": "[calyculin A]", "values": [{"measurement": "activation of WNK1 by other stimuli, in words", "setting": "[2]", "value": "failed to induce activation of WNK1"}]}
{"molecule": "OC[C@@H](O)[C@@H](O)[C@H](O)[C@@H](O)CO", "note": "[sorbitol]", "values": [{"measurement": "fold increase of WNK1 activity", "setting": "[2]; 0.1–1.0 M sorbitol, 30 min, dose-dependent", "value": "fivefold"}, {"measurement": "duration of sustained WNK1 activation", "setting": "[2]; 0.5 M sorbitol", "value": 80, "unit": "min"}, {"measurement": "time at which WNK1 activation was detected", "setting": "[2]; 0.5 M sorbitol", "value": "≤ 0.5", "unit": "min"}, {"measurement": "time to maximal WNK1 activation", "setting": "[2]; 0.5 M sorbitol", "value": "1 to 2", "unit": "min"}, {"measurement": "fold increase of WNK1 activity (OSR1 phosphorylation rate)", "setting": "[2]; 0.5 M sorbitol, 30 min, vs nontreated cells, duplicate samples", "value": "approximately threefold"}, {"measurement": "p38 and JNK stimulation, in words", "setting": "[5]; 0.5 M sorbitol", "value": "stimulated the extracellular signal–regulated kinase (ERK) 1/2, p38, and JNK protein kinases"}, {"measurement": "WNK1 phosphorylation sites stimulated, in words", "setting": "[6]; 32P-labelled 293 cells, 20 min", "value": "Phosphorylation of two sites, Ser1261 and Ser 2372, was stimulated"}, {"measurement": "WNK1 phosphorylation sites enhanced, in words", "setting": "[6]; unlabeled 293 cells, LC-MS, 30 min", "value": "five residues (Ser15, Ser167, Ser382, Ser1261, and Thr1848) whose phosphorylation was markedly enhanced"}, {"measurement": "fold increase of SPAK/OSR1 activity", "setting": "[7]", "value": "approximately fivefold"}, {"measurement": "fold increase of SPAK/OSR1 activity", "setting": "[8]", "value": "approximately fourfold"}, {"measurement": "WNK1 localization, in words", "setting": "[3]; 0.2 M sorbitol, 1 min", "value": "WNK1 was strikingly observed on discrete intracellular structures"}, {"measurement": "time to redistribution of GFP-WNK1 to intracellular vesicles", "setting": "[3]", "value": "≤ 0.5", "unit": "min"}, {"measurement": "time to reversal after removal (WNK1 diffuse in cytosol)", "setting": "[3]", "value": "≤ 2", "unit": "min"}, {"measurement": "FRAP: time to redistribution to photobleached area", "setting": "[3]", "value": "≤ 2", "unit": "min"}, {"measurement": "SPAK/OSR1 T-loop and S-motif phosphorylation, in words", "setting": "[9]", "value": "markedly stimulated the phosphorylation of endogenously expressed SPAK and OSR1 at both the T-loop and S-motif"}, {"measurement": "ERK1/2 stimulation, in words", "setting": "[4]; 0.5 M sorbitol, 30 min", "value": "stimulated the extracellular signal–regulated kinase (ERK) 1/2"}]}
{"molecule": "AGRRFIVpSPVPESRL (AGRRFIV[pS]PVPESRL; also: biotin label, attachment end not given here) [phosphorylated Ser1261 peptide]", "values": [{"measurement": "binding to OSR1 CCT domain, in words", "setting": "[10]", "value": "bound to OSR1 with a markedly lower affinity"}]}
{"molecule": "IGF-1: IGF-1", "values": [{"measurement": "activation of WNK1 by other stimuli, in words", "setting": "[2]", "value": "failed to induce activation of WNK1"}]}
{"molecule": "TNFα", "values": [{"measurement": "activation of WNK1 by other stimuli, in words", "setting": "[2]", "value": "failed to induce activation of WNK1"}]}
{"molecule": "WNK1[1–661]: wild-type WNK1 fragment expressed in E. coli", "values": [{"measurement": "specific activity", "setting": "[11]", "value": 5.2, "unit": "U/mg"}, {"measurement": "Ser382 phosphorylation after MgATP, in words", "setting": "[12]; 0.1 mM ATP, 10 mM Mg, 1 h", "value": "did not further increase phosphorylation of Ser382"}, {"measurement": "Ser382 phosphorylation, in words", "setting": "[12]; expressed in E. coli", "value": "heavily phosphorylated at Ser382"}]}
{"molecule": "WNK1[1–667]: N-terminal fragment of WNK1, GST fusion, expressed in 293 cells", "values": [{"measurement": "Ser382 phosphorylation induced by sorbitol, in words", "setting": "[13]", "value": "Sorbitol markedly increased recognition of WNK1[1–667] by a phospho-Ser382 antibody"}, {"measurement": "specific activity", "setting": "[14]; isolated from sorbitol-stimulated 293 cells", "value": "~0.13", "unit": "U/mg"}, {"measurement": "specific activity", "setting": "[14]; wild-type, isolated from untreated 293 cells", "value": 0.13, "unit": "U/mg"}]}
{"molecule": "WNK1[S382A, 1–661]: mutant expressed in E. coli", "values": [{"measurement": "specific activity", "setting": "[11]", "value": 0.15, "unit": "U/mg"}]}
{"molecule": "WNK1[S382D, 1–661]: mutant expressed in E. coli", "values": [{"measurement": "specific activity", "setting": "[11]", "value": 0.26, "unit": "U/mg"}]}
{"molecule": "WNK1[S382E, 1–661]: mutant expressed in E. coli", "values": [{"measurement": "specific activity", "setting": "[11]", "value": 0.66, "unit": "U/mg"}]}
{"molecule": "WNK1[S382E, 1–667]: Ser382 to Glu mutant of GST-WNK1[1–667]", "values": [{"measurement": "effect of sorbitol on activity of mutant, in words", "setting": "[14]; 0.5 M sorbitol, 30 min", "value": "not enhanced by sorbitol stimulation"}, {"measurement": "basal activity, fold over wild-type WNK1[1–667] from untreated cells", "setting": "[14]; untreated 293 cells", "value": "over eightfold"}]}
{"molecule": "pervanadate", "values": [{"measurement": "activation of WNK1 by other stimuli, in words", "setting": "[2]", "value": "failed to induce activation of WNK1"}]}
{"molecule": "Biotin-AGRRFIVSPVPESRL", "note": "[biotinylated peptide encompassing Ser1261 of WNK1 (biotin-AGRRFIVSPVPESRL)]", "values": [{"measurement": "Kd", "setting": "[15]", "value": "~40", "unit": "nM"}]}
